Experimental data published in patent US20220267271A1, “WNT ACTIVATORS AND METHODS OF USE” (MAYO FOUNDATION FOR MEDICAL EDUCATION AND RESEARCH, priority 2019, published 2022).

How the values were obtained:
Format in all cases: cell-based
β-catenin = β-catenin level in N2a cells by Western blotting; details: 24 h; for β-catenin level: concentration as low as 0.1 μM; for EC50: Mus musculus, 3-4 independent experiments, read-out: EC50 values (X±SD), β-catenin level
Experimental: (A,C) N2a cells were treated with CI-994 at the indicated concentration for 24 h, and the levels of β-catenin (A) and BACE1 (C) were examined by Western blotting. (B,D) The band intensity of β-catenin and BACE1 was quantified and normalized to the corresponding signal for actin. The results represented in the histograms are shown as the mean±SD and are the average of three independent experiments. *P<0.05, **P<0.01 versus corresponding control value.
N2a cells were treated with 1015, 1011, or 1020 at the indicated concentration for 24 h. (A) the levels of total cellular β-catenin were examined by Western blotting. (B) The intensity of the β-catenin bands were quantified and normalized to the corresponding signal for actin. The results represented in the histograms are shown as the mean±SD and are the average of 3-4 independent experiments, and the EC50 values were calculated with graphpad prism.
Western blotting: Cells in 6-well plates were lysed in 0.5 ml of lysis buffer (phosphate-buffered saline containing 1% Triton X-100, 1× Proteinase inhibitor cocktail Complete, and 1 mM PMSF) at 4° C. for 15 min. Equal quantities of protein were subjected to SDS-PAGE under reducing conditions. Following transfer to immobilon-P transfer membrane, successive incubations with a primary antibody, and a horseradish peroxidase-conjugated secondary antibody or IRDye® 680RD goat anti-rabbit/mouse secondary antibodies were carried out for 60-120 min at room temperature. The immunoreactive proteins were then detected using the ECL system or the Odyssey infrared imaging system (LI-COR). Films showing immunoreactive bands were scanned by Hp Scanjet 5590.

C2C12 cells = assay: Alkaline phosphatase (ALP) activity assay, osteoblastic differentiation of C2C12 cells; details: 72 h; for potency in inducing C2C12 osteoblastic differentiation compared with CI-994: dose-response 0.1-12.8 μM
Experimental: C2C12 cells were seeded into 24-well plates (1×10^5 cells/well). After culture overnight, the cells were treated with a Wnt activator at 0.8 μM (A) and 1.6 μM (B) for 72 h. The ALP activity was measured by ALP assay kit from AnaSpec (AS-72146). All the values are the average of triple determinations with the s.d. indicated by error bars. *P<0.05, **P<0.01 versus corresponding control value. This experiment is a representation of two such experiments performed with similar data.
C2C12 cells were seeded into 24-well plates (1×10^5 cells/well). After culture overnight, the cells were treated with the noted compounds at 0, 0.1, 0.2, 0.4, 0.8, 1.6, 3.2, 6.4 and 12.8 μM for 72 hours. The ALP activity was measured by ALP assay kit from AnaSpec (AS-72146). All the values are the average of triple determinations with the s.d. indicated by error bars.
Alkaline phosphatase (ALP) activity assay: C2C12 cells in 24-well plates were treated with each individual compound at the indicated concentrations for 72 h. Cells were then harvested for assay of ALP activity with the ALP assay kit (AnaSpec) according to the manufacturers specifications.

Wnt/β-catenin signaling = assay: Luciferase reporter assay (Super8XTOPFlash) for Wnt/β-catenin signaling in HEK293 cells; details: 24 h; for Wnt reporter activity / activation of Wnt/β-catenin signaling: HEK293 cells; for EC50: Homo sapiens, Wnt3A plasmid-transfected HEK293 cells, 30-30,000 nM, mean and SD of 3-7 independent experiments
Experimental: (A) structures of niciosamide and CI-994; (B) HEK293 cells were transfected with Super8XTOPFlash and β galactosidase vectors along with Wnt3A or control vector. After 24 hours incubation, cells were treated with CI-994 at the indicated concentration for 24 hr. The luciferase activity was then measured and normalized to the activity of the β-galactosidase. (C) HT1080 cells stably transduced LRP6 with HA tag were treated with niciosamide and CI-994 at the indicated concentrations for 24 h. The levels of HA-LRP6 were examined by Western blot with anti-HA antibody. (D) Western blots showing the depletion of LRP6 after 2 days of transiently transfection of 50 nM LRP6 siRNA in HEK293 cells. ON-TARGETplus double-stranded siRNA oligomers against human LRP6 and non-specific scrambled siRNA control (Stealth RNAi™ siRNA Negative Control, Med GC) were purchased from Thermo Scientific. siRNA LRP6-1, siRNA LRP6-2 and control siRNA were Thermo Scientific catalog numbers J-003845-09, J-003845-11 and 12935300, respectively. (E) HEK293 cells were transfected with LRP6 siRNAs, and after 8 h incubation were further transfected with Super8XTOPFlash construct and β galactosidase-expressing vector. After 24 h incubation, the cells were treated with CI-994 (16 μM) for 24 h. The luciferase activity was then measured and normalized to β-galactosidase activity. All the values are the average of triplicate determinations with the SD values indicated by error bars. **P<0.01 versus corresponding control value.
HEK293 cells were transfected with SuperXTOPFlash and β-galactosidase vectors along with Wnt3A or control vector. After 24 h incubation, cells were treated with 1015 or 1039 at the indicated concentrations for 24 h. The luciferase activity was then measured and normalized to the activity of the β-galactosidase. All the values are the average of triplicate determinations with the SD values indicated by error bars. This experiment is representative of at least three such experiments performed with similar data.
Luciferase reporter assay for Wnt/β-catenin signaling: HEK293 cells were plated into 24-well plates. After overnight culture, the cells were transiently transfected with the Super8XTOPFlash luciferase construct and β-galactosidase-expressing vector along with or without Wnt3A plasmid. After 24 h incubation, cells were treated with each individual compound at the indicated concentrations for 24 h. Cells were then lysed and both luciferase and β-galactosidase activities were determined. The luciferase activity was normalized to the β-galactosidase activity.
HEK293 cells were plated into 24-well plates. After overnight culture, the cells were transiently transfected with the Super8XTOPFlash luciferase construct and β-galactosidase-expressing vector along with the Wnt3A plasmid. After 24 h incubation, the cells were treated with each individual compound at 30-30,000 nM in triplication for 24 h. The cells were then lysed, and luciferase and β-galactosidase activities were determined with the luciferase assay system (Promega, Cat. #E1501) and β-galactosidase assay system (Promega, Cat. #E2000), respectively. The luciferase activity was normalized to the s-galactosidase activity, and the EC50 values were calculated by use of GraphPad software, and shown in the below table. All the EC50 values (mean and SD) are from 3-7 independent experiments.

Row | SMILES | β-catenin levels (β-catenin; CI-994 at the indicated concentration) | ALP activity (C2C12 cells; C2C12 cells, 0.8 μM and 1.6 μM) | Wnt reporter activity / activation of Wnt/β-catenin signaling (Wnt/β-catenin signaling) | β-catenin level (β-catenin) | EC50 (β-catenin) | potency in inducing C2C12 osteoblastic differentiation compared with CI-994 (C2C12 cells) | EC50 (Wnt/β-catenin signaling)
1 | CC(=O)Nc1ccc(C(=O)Nc2ccccc2N)cc1 [CI-994, 4-(acetylamino)-N-(2-aminophenyl)benzamide, reference compound] | significantly increased | significantly enhanced | increased | – | – | – | –
2 | CC1CCCC(C)N1CCNC(=O)c1ccc(C(=O)Nc2ccccc2N)nc1 (stereo not drawn) [Compound 1011] | – | – | – | significantly enhanced | 930 ± 10 nM | more potent than CI-994 | 920 ± 455 nM
3 | Nc1ccccc1NC(=O)c1ccc(C(=O)NCC2CCN2C2CCCC2)cn1 (stereo not drawn) [Compound 1015] | – | – | activate | significantly enhanced | 960 ± 140 nM | more potent than CI-994 | 623 ± 212 nM
4 | Nc1ccccc1NC(=O)c1ccc(C(=O)NCCN2CCC3(CCCCC3)CC2)cc1 [Compound 1020] | – | – | – | significantly enhanced | 1020 ± 240 nM | – | 860 ± 278 nM
